Measured values as given in PubChem BioAssay (NCI).
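Dose response: 5 concentrations. Exposure: 48 h. Format: 96-well plates. Endpoint: linear interpolation; highest concentration if not reached. GI50 is the concentration that inhibits growth by half. At the TGI there is no net growth.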

Legend:
Experiment in all cases: growth of human tumour cells (NCI), 48 h
RXF 393 renal = test system: RXF 393 renal
HCT-116 colon = test system: HCT-116 colon
SF-539 CNS = test system: SF-539 CNS
T-47D breast = test system: T-47D breast
NCI-H226 lung = test system: NCI-H226 lung
SF-295 CNS = test system: SF-295 CNS
OVCAR-4 ovarian = test system: OVCAR-4 ovarian
BT-549 breast = test system: BT-549 breast
U251 CNS = test system: U251 CNS
EKVX NSCLC = test system: EKVX NSCLC

Row | SMILES | GI50 (RXF 393 renal) [µM] | TGI (RXF 393 renal) [µM] | GI50 (HCT-116 colon) [µM] | TGI (HCT-116 colon) [µM] | GI50 (SF-539 CNS) [µM] | TGI (SF-539 CNS) [µM] | GI50 (T-47D breast) [µM] | TGI (T-47D breast) [µM] | GI50 (NCI-H226 lung) [µM] | TGI (NCI-H226 lung) [µM] | GI50 (SF-295 CNS) [µM] | TGI (SF-295 CNS) [µM] | GI50 (OVCAR-4 ovarian) [µM] | TGI (OVCAR-4 ovarian) [µM] | GI50 (BT-549 breast) [µM] | TGI (BT-549 breast) [µM] | GI50 (U251 CNS) [µM] | TGI (U251 CNS) [µM] | GI50 (EKVX NSCLC) [µM] | TGI (EKVX NSCLC) [µM]
1 | N#Cc1ccc(OC(=O)Nc2ccc(Cl)c(Cl)c2)cc1 | 7.3 | 42.2 | 3.4 | > 100 | 4.43 | 33 | 3.15 | 12.8 | 3.8 | > 100 | 2.54 | 7.64 | 2.24 | 17.7 | 9.93 | 44.2 | 3.04 | 23.2 |  | 
2 | CCCCCc1ccc(S(=O)(=O)Nc2cc(-c3csc(NC(C)=O)n3)ccc2N2CCN(C)CC2)cc1 | 3.66 | 8 | 1.11 | 4.43 | 4.98 | 9.63 | 4.8 | 11.7 | 4.94 | 10.7 | 4.9 | 9.59 | 5.44 | 10.3 | 4.98 | 10.1 | 3.78 | 8.93 | 5.65 | 10.7
3 | CCC(=O)Nc1ccc(N=NN(C)C)cc1 |  | > 100 |  | > 100 |  | > 100 |  | 30.4 |  | > 100 |  |  |  | > 100 |  | > 100 |  | > 100 |  | > 100
4 | CC1C(=O)OC2CC[N+]3([O-])CC=C(COC(=O)C(C)(O)C1(C)O)C23 (stereo not given) |  | > 100 |  | > 100 |  | > 100 |  | > 100 |  | > 100 |  | > 100 |  | > 100 |  | > 100 |  | > 100 |  | > 100
5 | COC(C(=O)[C@@H](O)[C@@H](C)O)[C@@H]1Cc2cc3cc(O[C@H]4C[C@@H](O[C@H]5C[C@@H](O)[C@H](O)C(C)O5)[C@H](O)C(C)O4)c(C)c(O)c3c(O)c2C(=O)[C@H]1O[C@H]1C[C@@H](O[C@H]2C[C@@H](O[C@H]3C[C@@H](O)[C@H](OC)C(C)O3)[C@@H](O)C(C)O2)[C@H](O)C(C)O1 (stereo not given in full) | 0.034 | 0.139 | 0.0112 | > 33.3 | 0.0142 | 0.101 | 0.0139 | 0.237 | 0.0209 | > 33.3 | 0.0141 | > 33.3 | 0.049 | > 26.5 | 0.0219 | 0.258 |  | > 33.3 |  | > 33.3
6 | CC(C)C1=C2CCC3(C)C(CCC4C5C6OCC5(CCC6(C)C)CCC43C)C2(C)CC1 (stereo not given) |  | 48.8 |  | 34.4 |  | 32.9 |  | 63 |  | > 100 |  | 34.5 |  | 77.5 |  | 52.2 |  | 37 |  | 39.2
7 | O=c1oc2ccc(Br)cc2c(=O)n1-c1ccc(F)cc1F | 2.27 | 6.34 | 2.48 | 8.37 | 2.17 | 9.21 | 1.77 | 6.94 | 2.32 | 13.8 | 1.88 | 3.71 | 1.65 | 8.45 | 1.79 | 5.5 | 2.51 | 31.5 | 2.03 | 9.32
